From ChEMBL document CHEMBL5107965, “The progress of small-molecules and degraders against BCR-ABL for the treatment of CML” (Eur J Med Chem, 2022)
In brackets after ≈: the same amount, converted by molar mass. Blank lines part the entries; values can stand above or below the molecule they belong to.

Assays:
[1] = Inhibition of Abl […] mutant (unknown origin); set-up: species or system Homo sapiens
K562 [2] = assay: Antiproliferative activity against imatinib resistant human K562 cells harbouring ABL-T315I mutant assessed as cell growth inhibition by XTT assay; type: functional
K562 [3] = assay: Antiproliferative activity against imatinib resistant human K562 cells harbouring wild type ABL assessed as cell growth inhibition by XTT assay; type: functional
K562 [4] = assay: Antiproliferative activity against imatinib resistant human K562 cells assessed as cell growth inhibition measured after 48 hrs by MTT assay; type: functional, cell-based; conditions: K562, 48 h
[5] = Cytotoxicity against human CD34-positive/CD38-negative leukemic cell assessed as cell growth inhibition measured after 48 hrs by MTT assay; type: functional, cell-based
Leukemia cell = assay: Cytotoxicity against human Leukemia cell assessed as cell growth inhibition measured after 48 hrs by MTT assay; type: functional, cell-based
HL-60 = assay: animal or person; conditions: Mus musculus, HL-60, 528 h, read-out: TGI
Description: Antitumor activity against human HL-60 cells xenografted in SCID mouse assessed as tumor growth inhibition at 30 mg/kg, iv measured after 22 days relative to control

[6] = Inhibition of Aurora kinase (unknown origin); set-up: species or system Homo sapiens
[7] = Oral bioavailability in BALB/c mouse at 30 mg/kg via gavage; type: ADME, organism-based; conditions: in vivo
[8] = Cmax in BALB/c mouse at 30 mg/kg, po via gavage; type: ADME, organism-based; set-up: dose 30 mg/kg, route po; conditions: in vivo
[9] = target: Tyrosine-protein kinase Lyn (Homo sapiens, UniProt P07948); assay: Inhibition of LYN (unknown origin) in presence of [gamma33P]-ATP and ATP by ELISA method
Sequence of Tyrosine-protein kinase Lyn (P07948 whole entry): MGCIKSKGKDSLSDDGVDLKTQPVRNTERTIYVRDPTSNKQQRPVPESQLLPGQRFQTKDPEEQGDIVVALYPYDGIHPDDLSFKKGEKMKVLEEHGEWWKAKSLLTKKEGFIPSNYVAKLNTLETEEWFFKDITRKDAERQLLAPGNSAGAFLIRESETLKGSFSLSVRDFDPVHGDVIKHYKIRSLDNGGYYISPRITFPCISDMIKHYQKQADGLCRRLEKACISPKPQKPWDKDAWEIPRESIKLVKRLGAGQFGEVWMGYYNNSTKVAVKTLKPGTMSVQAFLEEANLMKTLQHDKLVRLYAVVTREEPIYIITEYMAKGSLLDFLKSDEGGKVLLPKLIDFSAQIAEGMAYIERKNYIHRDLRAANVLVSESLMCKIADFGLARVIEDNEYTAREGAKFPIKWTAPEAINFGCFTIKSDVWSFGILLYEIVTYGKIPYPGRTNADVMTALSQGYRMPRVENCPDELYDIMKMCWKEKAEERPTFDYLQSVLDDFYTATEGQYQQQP

[10] = Half life in BALB/c mouse at 30 mg/kg, po via gavage; type: ADME, organism-based; conditions: in vivo
[11] = Tmax in BALB/c mouse at 30 mg/kg, po via gavage; type: ADME, organism-based; conditions: in vivo
[12] = AUC in BALB/c mouse at 30 mg/kg, po via gavage; type: ADME, organism-based; set-up: dose 30 mg/kg, route po; conditions: in vivo
K562 [13] = assay: Antiproliferative activity against human K562 cells assessed as cell growth inhibition; type: functional, cell-based
K562 [14] = assay: Antiproliferative activity against human K562 cells assessed as cell growth inhibition measured after 24 hrs; type: functional, cell-based; conditions: K562, 24 h
[15] = Half life in mouse at 10 mg/kg, po measured after upto 24 hrs by LC-MS/MS analysis; type: ADME, organism-based; conditions: in vivo
[16] = target: von Hippel-Lindau disease tumor suppressor/Tyrosine-protein kinase ABL1/Breakpoint cluster region protein (Homo sapiens, UniProt P00519+P11274+P40337); assay: Protac activity at VHL/BCR-ABL in human K562 cells assessed as reduction in BCR-ABL protein levels by immunoblotting analysis; type: cell-based
[17] = Cmax in mouse at 10 mg/kg, po measured after upto 24 hrs by LC-MS/MS analysis; type: ADME, organism-based; set-up: dose 10 mg/kg, time < 24 hrs, route po; conditions: in vivo
Bcr/Abl fusion protein [18] = target: T1, Bcr/Abl fusion protein (Homo sapiens, UniProt P00519); assay: Inhibition of BCR-ABL (unknown origin); type: protein assay
[19] = target: Tyrosine-protein kinase ABL1 (Homo sapiens, UniProt P00519, T315I); assay: Inhibition of Abl T315I mutant (unknown origin)
Aurora kinase A = target: T2, Aurora kinase A (Homo sapiens, UniProt O14965); assay: Inhibition of Aurora A (unknown origin)
T2 sequence (O14965 whole entry): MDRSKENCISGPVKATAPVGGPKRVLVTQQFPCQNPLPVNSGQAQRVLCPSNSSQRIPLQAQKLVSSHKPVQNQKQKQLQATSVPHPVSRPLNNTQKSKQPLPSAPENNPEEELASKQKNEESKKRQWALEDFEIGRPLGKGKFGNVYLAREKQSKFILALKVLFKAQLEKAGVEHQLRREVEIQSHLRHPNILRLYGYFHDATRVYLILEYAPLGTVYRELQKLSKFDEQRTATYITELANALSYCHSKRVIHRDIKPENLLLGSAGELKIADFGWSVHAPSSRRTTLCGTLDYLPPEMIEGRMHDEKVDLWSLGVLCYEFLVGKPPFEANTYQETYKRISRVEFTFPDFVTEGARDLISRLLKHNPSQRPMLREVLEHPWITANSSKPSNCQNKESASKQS

[20] = target: Tyrosine-protein kinase ABL1 (Homo sapiens, UniProt P00519)
Description: Inhibition of wild type Abl (unknown origin)

K562 [21] = assay: Antiproliferative activity against imatinib resistant human K562 cells expressing STAT5 assessed as cell growth inhibition; type: functional, cell-based
K562 [22] = assay: Antiproliferative activity against imatinib resistant human K562 cells expressing BCR-ABL assessed as cell growth inhibition; type: functional, cell-based
[23] = Inhibition of BCR-ABL Y253H mutant phosphorylation in mouse BaF3 cells incubated for 4 hrs by immunoblotting analysis; type: cell-based; conditions: BaF3, 4 h
BCR/ABL1 [24] = target: BCR/ABL1 (Mus musculus, UniProt P00520, T315I); assay: Inhibition of BCR-ABL T315I mutant phosphorylation in mouse BaF3 cells incubated for 4 hrs by immunoblotting analysis; type: cell-based
Sequence of BCR/ABL1 (Mus musculus, UniProt P00520, T315I) (P00520 whole entry T315I, looked up): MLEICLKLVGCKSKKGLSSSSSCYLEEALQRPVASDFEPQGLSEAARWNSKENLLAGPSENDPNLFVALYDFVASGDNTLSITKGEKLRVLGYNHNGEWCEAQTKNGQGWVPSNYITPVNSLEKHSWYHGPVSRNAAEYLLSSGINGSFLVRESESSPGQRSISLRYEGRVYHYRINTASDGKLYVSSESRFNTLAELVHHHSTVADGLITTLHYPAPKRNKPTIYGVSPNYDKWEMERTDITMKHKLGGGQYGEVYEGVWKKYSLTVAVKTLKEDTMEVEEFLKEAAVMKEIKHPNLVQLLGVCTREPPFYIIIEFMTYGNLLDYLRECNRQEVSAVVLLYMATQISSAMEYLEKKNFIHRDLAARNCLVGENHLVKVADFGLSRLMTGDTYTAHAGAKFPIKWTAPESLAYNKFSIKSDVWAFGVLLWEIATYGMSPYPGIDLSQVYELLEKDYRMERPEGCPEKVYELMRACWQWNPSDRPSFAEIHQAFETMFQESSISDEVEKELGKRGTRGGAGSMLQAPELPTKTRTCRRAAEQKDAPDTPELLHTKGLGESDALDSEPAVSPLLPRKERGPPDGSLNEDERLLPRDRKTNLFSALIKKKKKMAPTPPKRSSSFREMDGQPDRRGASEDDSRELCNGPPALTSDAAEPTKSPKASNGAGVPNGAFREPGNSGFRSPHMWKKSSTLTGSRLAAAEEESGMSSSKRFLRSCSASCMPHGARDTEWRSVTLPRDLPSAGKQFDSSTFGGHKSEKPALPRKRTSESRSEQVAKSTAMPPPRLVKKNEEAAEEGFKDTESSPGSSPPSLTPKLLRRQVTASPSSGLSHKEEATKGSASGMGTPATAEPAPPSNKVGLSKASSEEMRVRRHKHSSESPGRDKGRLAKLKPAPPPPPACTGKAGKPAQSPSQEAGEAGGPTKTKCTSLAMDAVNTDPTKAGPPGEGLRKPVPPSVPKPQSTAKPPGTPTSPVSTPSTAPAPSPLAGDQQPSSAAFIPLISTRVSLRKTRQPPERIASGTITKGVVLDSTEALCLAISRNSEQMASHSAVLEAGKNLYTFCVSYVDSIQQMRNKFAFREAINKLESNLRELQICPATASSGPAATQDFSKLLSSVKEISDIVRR

[25] = Ratio of drug concentration in brain to plasma of mouse at 30 mg/kg, measured after 1 hr; type: ADME, organism-based; conditions: read-out: BPR
[26] = Inhibition of BCR-ABL L248R mutant phosphorylation in mouse BaF3 cells incubated for 4 hrs by immunoblotting analysis; type: cell-based; conditions: BaF3, 4 h
Bcr/Abl fusion protein [27] = target: T1, Bcr/Abl fusion protein; assay: Inhibition of wild type BCR-ABL phosphorylation in mouse BaF3 cells incubated for 4 hrs by immunoblotting analysis; type: cell-based
BCR/ABL1 [28] = target: BCR/ABL1 (Mus musculus, UniProt P00520, E255V); assay: Inhibition of BCR-ABL E255V mutant phosphorylation in mouse BaF3 cells incubated for 4 hrs by immunoblotting analysis; type: cell-based
Sequence of BCR/ABL1 (Mus musculus, UniProt P00520, E255V) (P00520 whole entry E255V, looked up): as the sequence (P00520 whole entry T315I, looked up) above, with E255V, I315T counted along it

[29] = Plasma concentration in mouse at 30 mg/kg, measured after 1 hr; type: ADME, organism-based
[30] = Drug concentration in brain of mouse at 30 mg/kg, measured after 1 hr; type: ADME, organism-based; conditions: read-out: Ct

IC50 [1]: 1.4 nM
SMILES: CNC(=O)c1cc(Oc2ccc(NC(=O)Nc3cc(C(C)(C)C)nn3-c3ccc4ncccc4c3)c(F)c2)ccn1 [REBASTINIB]

GI50 (K562 [2]): 270 nM | GI50 (K562 [3]): 270 nM
SMILES: O=C(c1ccc(/C=C/c2n[nH]c3ccccc23)cc1)N1CCNCC1 [KW-2449]

SMILES: COc1ccc2cc1Oc1ccc(cc1)C[C@H]1c3cc(c(OC)cc3CCN1C)Oc1c(OC)c(OC)cc3c1[C@H](C2)N(C)CC3.O=C(O)CC(O)(CC(=O)O)C(=O)O
IC50 (K562 [4]): 1.2 µg/mL | IC50 [5]: 1.2 µg/mL | IC50 (Leukemia cell): 1.2 µg/mL

SMILES: CO[C@H](C(=O)N1Cc2[nH]nc(NC(=O)c3ccc(N4CCN(C)CC4)cc3)c2C1)c1ccccc1
inhibition in vivo at 30 mg/kg (HL-60): 98% | IC50 [6]: 13 nM

bioavailability [7]: 32% | Cmax [8]: 661 ng/mL | IC50 [9]: 19 nM | half-life [10]: 1 h | Tmax [11]: 2 h | AUC [12]: 2290 ng·h/mL
SMILES: Cc1ccc(NC(=O)c2ccc(CN3CC[C@H](N(C)C)C3)c(C(F)(F)F)c2)cc1Nc1nccc(-c2cncnc2)n1 [BAFETINIB]

SMILES: COC(=O)C[C@](O)(CCCC(C)(C)O)C(=O)O[C@@H]1C(OC)=C[C@]23CCCN2CCc2cc4c(cc2[C@H]13)OCO4 [OMACETAXINE MEPESUCCINATE]
IC50 (K562 [13]): 0.0439 µg/mL (≈ 0.0804 µM)

IC50 (K562 [14]): 169 nM | half-life [15]: 3.67 h | DC50 [16]: 30 nM | Cmax [17]: 536 ng/mL
SMILES: Cc1ncsc1-c1ccc(CNC(=O)[C@@H]2C[C@@H](O)CN2C(=O)[C@@H](NC(=O)COCCNc2ccc(C(=O)Nc3ccc(OC(F)(F)Cl)cc3)cc2-c2cc[nH]n2)C(C)(C)C)cc1

IC50 (Bcr/Abl fusion protein [18]): 1.2 nM
SMILES: Cc1cn(-c2cc(NC(=O)c3ccc(C)c(Nc4nccc(-c5cnccn5)n4)c3)cc(C(F)(F)F)c2)cn1 [RADOTINIB]

SMILES: CC(C)c1cc(CNc2nc(Nc3cc(C4CC4)[nH]n3)cc(N3CCN(C)CC3)n2)on1 [XL-228]
IC50 [19]: 14 nM | IC50 (Aurora kinase A): 3.1 nM | IC50 [20]: 5 nM | IC50 (K562 [21]): 43 nM | IC50 (K562 [22]): 33 nM

IC50 [23]: 154 nM | IC50 (BCR/ABL1 [24]): 1970 nM | Kp at 1 h [25]: 0.4 | IC50 [26]: 167 nM | IC50 (Bcr/Abl fusion protein [27]): 0.9 nM | IC50 (BCR/ABL1 [28]): 165 nM | concentration at 1 h [29]: 4800 ng/mL | concentration at 1 h [30]: 1900 ng/g
SMILES: Cc1ccc(C(=O)NNC(=O)c2c(C)cccc2Cl)cc1C#Cc1cnc2ccccc2c1 [VODOBATINIB]
